Data on 22 molecules can be found in patent US9561231B2 (AbbVie Inc., priority 2012, dated 2017).

Assay [1] concerns the target T1, first (BD1: amino acids K57-E168) bromodomain of BRD4 (Homo sapiens, UniProt O60885).
T1 construct: His-tagged first (BD1: amino acids K57-E168)
Kind of assay: TR-FRET bromodomain binding assay, BRD4 BD1. The settings on record: TR-FRET assay protocol (A-G, compound concentration range); Ki calculated from IC50, probe Kd and probe concentration; read-out: TR-FRET Binding Ki: BRD4 (BDI_K57-E168). The procedure, abridged:
(§1)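 TR-FRET probe competition, His-tagged bromodomain, Alexa647-labeled BET-inhibitor tracer. Ki from IC50 via probe Kd.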

Assay [2] concerns the target T2, second (BD2: amino acids E352-E168) bromodomain of BRD4 (Homo sapiens, UniProt O60885).
T2 construct: protocol
Kind of assay: TR-FRET bromodomain binding assay, BRD4 BD2. The settings on record: TR-FRET assay protocol (A-G, compound concentration range); Ki calculated from IC50, probe Kd and probe concentration; read-out: TR-FRET Binding Ki: BRD4 (BDII_E352-M457). The procedure, abridged:
as §1

The subject of assay [3] is breast cancer cell line MX-1. Nature of the assay: MX-1 cell line proliferation assay (3-day). The format is cell-based. The note with it: Homo sapiens, MX1; MX-1 cells, 72 h incubation, Cell Titer Glo; read-out: Cellular proliferation: EC50. The method, boiled down: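 EC50 derived by sigmoidal fitting of Cell Titer Glo signal relative to DMSO controls. Compound, 3 μM down to 0.0001 μM final in 3-fold steps, was added to adhered MX-1 cells (5000/well, RPMI + 10% FBS) for a 3-day incubation at 37° C.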
Background: ATP-based viability assays read luminescence as a measure of living cells.

Some results are limits rather than exact numbers.

For orientation: Ki means a measure of affinity in units of concentration, obtained from inhibition or displacement. `CCOc1cc(=O)n(C)cc1-c1cc(NC(=O)CCC(C)C)ccc1Oc1ccc(F)cc1F` [Example 298, N-[4-(2,4-difluorophenoxy)-3-(4-ethoxy-1-methyl-6-oxo-1,6-dihydropyridin-3-yl)phenyl]-4-methylpentanamide]: the inhibition constant (Ki) was 143 nM in assay [1] and 54.5 nM in assay [2]. Besides, in assay [3], the EC50 turned out to be 637 nM.

Take `CCOc1cc(=O)n(C)cc1-c1cc(NC(=O)c2ccc(NC(C)=O)cc2)ccc1Oc1ccc(F)cc1F` [Example 300, 4-(acetylamino)-N-[4-(2,4-difluorophenoxy)-3-(4-ethoxy-1-methyl-6-oxo-1,6-dihydropyridin-3-yl)phenyl]benzamide]: the Ki was 25.6 nM in assay [1] and 24.6 nM in assay [2]. In assay [3], the EC50 is 291 nM.

Take `C=CC#Cc1ccccc1Oc1ccc(S(=O)(=O)CC)cc1-c1cn(C)c(=O)cc1O` [Example 313, 5-{2-[2-(but-3-en-1-yn-1-yl)phenoxy]-5-(ethylsulfonyl)phenyl}-4-hydroxy-1-methylpyridin-2(1H)-one]: the Ki was 754 nM in assay [1] and 55.2 nM in assay [2]. Also, the EC50 in assay [3] was determined as 1330 nM.

For the molecule `CCS(=O)(=O)Nc1ccc(Oc2ccc(F)cc2F)c(-c2cn(C)c(=O)cc2OCc2ccc(CN3CCOCC3)cc2)c1` [Example 315, N-[4-(2,4-difluorophenoxy)-3-(1-methyl-4-{[4-(morpholin-4-ylmethyl)benzyl]oxy}-6-oxo-1,6-dihydropyridin-3-yl)phenyl]ethanesulfonamide], the results for the Ki in assay [1] and in assay [2] were 2.51 nM and 0.39 nM, respectively. In addition, the EC50 in assay [3] was 55.6 nM.

For the molecule `CCS(=O)(=O)Nc1ccc(Oc2ccc(F)cc2F)c(-c2cn(C)c(=O)cc2OC2COC2)c1` [Example 316, N-{4-(2,4-difluorophenoxy)-3-[1-methyl-4-(oxetan-3-yloxy)-6-oxo-1,6-dihydropyridin-3-yl]phenyl}ethanesulfonamide], the Ki is 3.9 nM in assay [1] and 0.809 nM in assay [2]. The EC50 in assay [3] was determined as 24.7 nM.

Consider `CCS(=O)(=O)c1ccc(Oc2ccc(F)cc2F)c(-c2cn(C)c(=O)cc2OC2COC2)c1` [Example 318, 5-[2-(2,4-difluorophenoxy)-5-(ethylsulfonyl)phenyl]-1-methyl-4-(oxetan-3-yloxy)pyridin-2(1H)-one], for which the inhibition constant (Ki) in assay [1] was 156 nM; in assay [2] it was 15.3 nM. For the same molecule, in assay [3], the EC50 was 42.7 nM.

Consider `CCS(=O)(=O)Nc1ccc(Oc2ccc(F)cc2F)c(-c2cn(C)c(=O)cc2OC2CCN(C(=O)OC(C)(C)C)CC2)c1` [Example 319, tert-butyl 4-[(5-{2-(2,4-difluorophenoxy)-5-[(ethylsulfonyl)amino]phenyl}-1-methyl-2-oxo-1,2-dihydropyridin-4-yl)oxy]piperidine-1-carboxylate], for which the Ki in assay [1] is 316 nM; in assay [2], 104 nM. The EC50 in assay [3] is 322 nM.

With `CCS(=O)(=O)Nc1ccc(Oc2ccc(F)cc2F)c(-c2cn(C)c(=O)cc2O[C@H]2CC[C@H](N(C)C)CC2)c1` [Example 321, N-[4-(2,4-difluorophenoxy)-3-(4-{[trans-4-(dimethylamino)cyclohexyl]oxy}-1-methyl-6-oxo-1,6-dihydropyridin-3-yl)phenyl]ethanesulfonamide], the inhibition constant (Ki) is 50 nM in assay [1] and 9.15 nM in assay [2]. Further, the EC50 in assay [3] turned out to be 423 nM.

Take `CCS(=O)(=O)Nc1ccc(Oc2ccc(F)cc2F)c(-c2cn(C)c(=O)cc2OC2CCNCC2)c1` [Example 322, N-{4-(2,4-difluorophenoxy)-3-[1-methyl-6-oxo-4-(piperidin-4-yloxy)-1,6-dihydropyridin-3-yl]phenyl}ethanesulfonamide]: the Ki in assay [1] was 437 nM; in assay [2], 90.9 nM. Also, the EC50 in assay [3] is more than 3000 nM.

Take `CCS(=O)(=O)Nc1ccc(Oc2ccc(F)cc2F)c(-c2cn(C)c(=O)cc2OCC2CCN(C)C2)c1` (stereo not drawn) [Example 323, N-[4-(2,4-difluorophenoxy)-3-{1-methyl-4-[(1-methylpyrrolidin-3-yl)methoxy]-6-oxo-1,6-dihydropyridin-3-yl]phenyl}ethanesulfonamide]: the inhibitory constant (Ki) was 150 nM in assay [1] and 101 nM in assay [2]. Besides, the EC50 in assay [3] is 1140 nM.

Turning to `CCS(=O)(=O)Nc1ccc(Oc2ccc(F)cc2F)c(-c2cn(C)c(=O)cc2OCC2CCN(C(=O)OC(C)(C)C)CC2)c1` [Example 324, tert-butyl 4-{[(5-{2-(2,4-difluorophenoxy)-5-[(ethylsulfonyl)amino]phenyl}-1-methyl-2-oxo-1,2-dihydropyridin-4-yl)oxy]methyl}piperidine-1-carboxylate], the Ki in assay [1] is 45 nM; in assay [2], 18.1 nM. Besides, the EC50 in assay [3] stood at 436 nM.

On to `CCS(=O)(=O)Nc1ccc(Oc2ccc(F)cc2F)c(-c2cn(C)c(=O)cc2OC2CC3(C2)CN(C(=O)OC(C)(C)C)C3)c1` [Example 325, tert-butyl 6-[(5-{2-(2,4-difluorophenoxy)-5-[(ethylsulfonyl)amino]phenyl}-1-methyl-2-oxo-1,2-dihydropyridin-4-yl)oxy]-2-azaspiro[3.3]heptane-2-carboxylate], for which the Ki in assay [1] is 30.6 nM; in assay [2], 21.4 nM. Moreover, the EC50 in assay [3] turned out to be 101 nM.

Consider `CCS(=O)(=O)Nc1ccc(Oc2ccc(F)cc2F)c(-c2cn(C)c(=O)cc2OC2CC3(CNC3)C2)c1` [Example 326, N-{3-[4-(2-azaspiro[3.3]hept-6-yloxy)-1-methyl-6-oxo-1,6-dihydropyridin-3-yl]-4-(2,4-difluorophenoxy)phenyl}ethanesulfonamide], for which the Ki in assay [1] is 2.61 nM; in assay [2] it was 17.5 nM. In addition, the EC50 in assay [3] is 2980 nM.

Regarding `CCN(CC)CC#CCOc1cc(=O)n(C)cc1-c1cc(NS(=O)(=O)CC)ccc1Oc1ccc(F)cc1F` [Example 328, N-[3-(4-{[4-(diethylamino)but-2-yn-1-yl]oxy}-1-methyl-6-oxo-1,6-dihydropyridin-3-yl)-4-(2,4-difluorophenoxy)phenyl]ethanesulfonamide], the Ki in assay [1] is 7.1 nM; in assay [2], 14.6 nM. Further, in assay [3], the EC50 was 72.7 nM.

In the case of `C/C=C/c1cc(=O)n(C)cc1-c1cc(NS(=O)(=O)CC)ccc1Oc1ccc(F)cc1F` [Example 329, N-[4-(2,4-difluorophenoxy)-3-{1-methyl-6-oxo-4-[(1E)-prop-1-en-1-yl]-1,6-dihydropyridin-3-yl]phenyl}ethanesulfonamide], the Ki is 2.98 nM in assay [1] and 1.71 nM in assay [2]. Moreover, the EC50 in assay [3] was 22.7 nM.

On to `CCS(=O)(=O)Nc1ccc(Oc2ccc(F)cc2F)c(-c2cn(C)c(=O)cc2-c2ccc(N3CCN(C)CC3)cc2)c1` [Example 330, N-[4-(2,4-difluorophenoxy)-3-{1-methyl-4-[4-(4-methylpiperazin-1-yl)phenyl]-6-oxo-1,6-dihydropyridin-3-yl}phenyl]ethanesulfonamide], for which the Ki in assay [1] was 1.96 nM; in assay [2], 0.584 nM. In addition, the EC50 in assay [3] worked out at 49.7 nM.

Consider `CCS(=O)(=O)Nc1ccc(Oc2ccc(OC3COC3)cc2F)c(-c2cn(C)c(=O)cc2OC2COC2)c1` [Example 336, N-{4-[2-fluoro-4-(oxetan-3-yloxy)phenoxy]-3-[1-methyl-4-(oxetan-3-yloxy)-6-oxo-1,6-dihydropyridin-3-yl]phenyl}ethanesulfonamide], for which the Ki was 21.4 nM in assay [1] and 1.67 nM in assay [2]. For the same molecule, the EC50 in assay [3] amounted to 165 nM.

Take `CCOc1cc(=O)n(C)cc1-c1cc(S(C)(=O)=O)ccc1NCC1CC1` [Example 340, 5-{2-[(cyclopropylmethyl)amino]-5-(methylsulfonyl)phenyl}-4-ethoxy-1-methylpyridin-2(1H)-one]: the Ki in assay [1] was 225 nM; in assay [2] it was 251 nM. The EC50 in assay [3] was 384 nM.

With `CCS(=O)(=O)Nc1ccc(Oc2ccc(F)cc2F)c(-c2cn(C)c(=O)cc2-c2cnn(C)c2)c1` [Example 342, N-{4-(2,4-difluorophenoxy)-3-[1-methyl-4-(1-methyl-1H-pyrazol-4-yl)-6-oxo-1,6-dihydropyridin-3-yl]phenyl}ethanesulfonamide], the inhibitory constant (Ki) was 2.21 nM in assay [1] and 0.609 nM in assay [2]. Moreover, the EC50 in assay [3] was 91.2 nM.

With `CCOc1cc(=O)n(C)cc1-c1cc(NS(=O)(=O)c2cccc3ccccc23)ccc1Oc1ccc(F)cc1F` [Example 343, N-[4-(2,4-difluorophenoxy)-3-(4-ethoxy-1-methyl-6-oxo-1,6-dihydropyridin-3-yl)phenyl]naphthalene-1-sulfonamide], the Ki in assay [1] is 69.8 nM; in assay [2] it was 12.7 nM. Moreover, the EC50 in assay [3] amounted to 504 nM.

Take `CCOc1cc(=O)n(C)cc1-c1cc(NS(=O)(=O)c2ccccc2)ccc1Oc1ccc(F)cc1F` [Example 344, N-[4-(2,4-difluorophenoxy)-3-(4-ethoxy-1-methyl-6-oxo-1,6-dihydropyridin-3-yl)phenyl]benzenesulfonamide]: the values for the Ki in assay [1] and in assay [2] were 23.1 nM and 5.07 nM, respectively. Further, the EC50 in assay [3] came out at 271 nM.

For `CCS(=O)(=O)Nc1ccc(Oc2ccc(F)cc2F)c(-c2cn(C)c(=O)cc2-c2cnn(CCN3CCOCC3)c2)c1` [Example 345, N-[4-(2,4-difluorophenoxy)-3-(1-methyl-4-{1-[2-(morpholin-4-yl)ethyl]-1H-pyrazol-4-yl}-6-oxo-1,6-dihydropyridin-3-yl)phenyl]ethanesulfonamide], the figures for the Ki in assay [1] and in assay [2] were 10.2 nM and 5.44 nM, respectively. For the same molecule, in assay [3], the EC50 stood at 126 nM.
